Laboratory results as given in patent publication US20200197409A1, “HEPATITIS B VIRUS SURFACE ANTIGEN INHIBITOR” (FUJIAN COSUNTER PHARMACEUTICAL CO., LTD., priority 2017, published 2020).

Columns and labels:
[1] = system: HBsAg; conditions: read-out: HBsAg EC50; HepG2.2.15 cells, supernatant on the 8th day
Method: The HBV DNA content in HepG2.2.15 cells culture supernatant was determined by real-time quantitative qPCR assay (real time-qPCR), and the HBV surface antigen content was determined by enzyme linked immunosorbent assay (ELISA). The inhibitory effect of the compound on HBV was evaluated by the EC50 value of the compound.
(§1) 2.1 Cell Line: HepG2.2.15 Cells
3.1 HepG2.2.15 cells (4×10^4 cells/well) were seeded into a 96-well plate and incubated overnight at 37° C. under 5% CO2.
3.2 On the 2nd day, the compound was diluted into 8 concentrations with 3-fold gradient. The compounds with different concentrations were added into the culture wells in duplicate wells. The final concentration of DMSO in the culture medium was 0.5%, 10 μM ETV was used as a 100%/inhibition control, and 0.5% DMSO was used as a 0% inhibition control.
3.3 On the 5th day, the culture medium was replaced with a fresh medium containing the compound.
3.4 On the 8th day, the culture medium in the culture well was collected, and a part of the sample was taken for ELISA to determine the content of hepatitis B virus S antigen, a part of the sample was taken to extract DNA with a high-throughput DNA purification kit (Qiagen-51162).
3.8 Determination of hepatitis B virus S antigen content by ELISA
50 μL of sample and standard sample were taken and added into a reaction plate respectively, followed by addition of 50 μL of enzyme conjugate into each well, the mixture was shaken and well-mixed, and placed in a bath at 37° C. for 60 minutes. The plate was then washed with washing solution 5 times, followed by addition of 50 μL of illuminating substrate into each well, the mixture was well-mixed and allowed to react at room temperature for 10 minutes in the dark. Chemiluminescence intensity was determined by a ELISA.
Calculation of the percentage of inhibition:% Inh.=(1−value of sample/value of DMSO control)×100
Calculation of EC50: The 50% inhibitory concentration (EC50) value of the compound on HBV was calculated by GraphPad Prism software.

[2] = system: HBV-DNA; assay: HBV DNA content in HepG2.2.15 cells culture supernatant by real time-qPCR; assay type: cell-based; conditions: supernatant on the 8th day
Method: as §1
3.6 15 μL of the reaction mixture was added into each well of a 96-well PCR plate, followed by addition of 10 μL of sample DNA or HBV DNA standards into each well.
3.7 PCR reaction conditions: heating at 95° C. for 10 minutes, then denaturation at 95° C. for 15 seconds, extension at 60° C. for 1 minute, a total of 40 cycles.

[3] = system: HBV; assay: In vivo pharmacodynamic study of hydrodynamic injection mouse HBV model (HDI-HBV) via tail vein; set-up: species or system Balb/c mice; conditions: mouse plasma
Method: Anti-hepatitis B virus activity of the compound of the embodiment in vivo was evaluated by HDI mice model.
Balb/c mice, 10% HP—F-CD as vehicle, test compound, RG7834, ETV (Entecavir), pAAV2-HBV 1.3mer plasmid (extracted with Qiagen EndoFree Plasmid Giga kit), main reagents including QIAamp96 DNA kit and FasStart Universal Probe Mast (ROX). The main instruments used in this experiment included centrifuge (Beckman Allegra X-15R), tissue grinder (QIAGEN-Tissue lyser II) and spectrophotometer (Thermo-NANODROP 1000).
b) On day 0, all mice were subjected to hydrodynamic injection with HBV plasmid DNA solution via tail vein. The plasmid DNA was pre-treated with sterile physiological saline before injection and stored at 4° C. until use. Plasmid DNA solution was injected via the tail vein at a dose of 8% of the body weight of the mouse within 5 seconds.
c) On the 1st day to the 7th day, the mice were administered with the compound or solvent by oral gavage for 7 days.
d) On the 1st day, 3rd day and 5th day, the blood was collected from the submandibular vein of the mice, and heparin sodium was used as an anticoagulant. The blood sample was centrifuged at 7,000×g, 4° C. to prepare the plasma for the determination of HBV DNA.
e) On the 7^h day, all mice were euthanized by CO2. The blood was collected from the heart to prepare plasma, and the liver tissue was collected. Two left hepatic lobe were isolated, the size of which was 70-100 mg, and were frozen by liquid nitrogen immediately after collection. One of the hepatic lobe was used for HBV DNA detection, and the other was used for backup.
The content of HBsAg in the serum of the mice was determined by ELISA (enzyme linked immunosorbent assay). The experimental procedure refers to the specification of HBsAg ELISA kit.
The inhibitory activity of the test compound on HBV replication on the mouse HDI model was determined by measuring the content of HBsAg in the plasma of the mice.

[4] = system: HBV; assay: Anti-HBV activity on the hepatitis B virus mouse model (AAV-HBV); assay type: in vivo, C57BL/6 mice; conditions: 1 mg/kg, PO, QD
Method: The AAV vector-mediated HBV infected mouse model is a fast and efficient HBV model. Using the high hepatotropism of the AAV vector, the recombinant adeno-associated type 8 virus carrying 1.3 copies of the HBV genome (rAAV8-1.3HBV) is injected into the tail vein of mice, which can efficiently introduce the carried 1.3 copy HBV genome into hepatocytes. Due to the characteristics of the AAV viral vector, the vector mediated by it can express for a long time. The AAV/HBV model can continuously replicate HBV DNA and express HBsAg and HBeAg in the liver of the mice.
The anti-HBV efficacy of the test compound in vivo was evaluated by determining the content of HBsAg in the serum of the mice after treatment with the test compound on AAV/HBV mouse mode.
C57BL/6 mice, 10% HP-f-CD as vehicle, reference compound TDF (Tenofovir), test compound, recombinant virus rAAVS-1.3HBV, main reagents of the experiment including QIAamp96 DNA kit and TaqMan® Universal PCR Master Mix, Hepatitis B Virus Surface Antigen Detection Kit, instruments including: centrifuge (Beckman Allegra X-15R), tissue grinder (QIAGEN-Tissue lyser II) and spectrophotometer (Thermo-NANODROP 1000).
a) All mice were orally administered on the 28th day after the virus injection, and the day was set as day 0. Submaxillary blood of all mice was collected for serum collection before administration. The mice were administered once a day for four weeks.
b) Submaxillary blood of all mice was collected for serum collection twice a week, the volume of the blood collected each time was approximately 100 μL.
c) On the 28th day, all mice were euthanized and the blood was collected from the heart for serum collection.
The content of HBsAg in the serum of the mice was determined by ELISA. The experimental procedure refers to the specification of HBsAg ELISA kit.
a) The anti-HBV activity of the test compound on AAV/HBV mice model was evaluated by determining the content of HBsAg in the plasma of the mice.

Row | Compound | EC50 [1] [nM] | EC50 [2] [nM] | also measured
1 | CC[C@@H]1COc2cc(OCCCOC)c(Cl)cc2-c2cc(=O)c(C(=O)O)cn21 [Embodiment 1] | 47.2 | 44.7 | –
2 | COCCCOc1cc2c(cc1Cl)-c1cc(=O)c(C(=O)O)cn1[C@H](C(C)C)CO2 [Embodiment 2] | 6.59 | 8.75 | –
3 | COCCCOc1cc2c(cc1Cl)-c1cc(=O)c(C(=O)O)cn1[C@H](C1CC1)CO2 [Embodiment 3] | 66.2 | 105 | –
4 | COCCCOc1cc2c(cc1Cl)-c1cc(=O)c(C(=O)O)cn1[C@H](C1CCCC1)CO2 [Embodiment 4] | 65.8 | 11.2 | –
5 | CC[C@@H](C)C1COc2cc(OCCCOC)c(Cl)cc2-c2cc(=O)c(C(=O)O)cn21 (stereo partly drawn) [Embodiment 5] | 28.8 | 21.5 | –
6 | CCSCCOc1cc2c(cc1Cl)-c1cc(=O)c(C(=O)O)cn1[C@H](C(C)C)CO2 [Embodiment 7] | 59.8 | 35.3 | –
7 | CSCCOc1cc2c(cc1Cl)-c1cc(=O)c(C(=O)O)cn1[C@H](C(C)C)CO2 [Embodiment 8] | 18 | 22.2 | –
8 | CC(C)[C@@H]1COc2cc(OCCCSCC(=O)O)c(Cl)cc2-c2cc(=O)c(C(=O)O)cn21 [Embodiment 9] | 22.4 | 16.2 | –
9 | CO/N=C/CCOc1cc2c(cc1Cl)-c1cc(=O)c(C(=O)O)cn1[C@H](C(C)C)CO2 [Embodiment 10] | 5.05 | 3.67 | –
10 | CNC(=O)OCCCOc1cc2c(cc1Cl)-c1cc(=O)c(C(=O)O)cn1[C@H](C(C)C)CO2 [Embodiment 11] | 15.5 | 14.2 | –
11 | CCN(CC)C(=O)CCCOc1cc2c(cc1Cl)-c1cc(=O)c(C(=O)O)cn1[C@H](C(C)C)CO2 [Embodiment 12] | 25.5 | 19.1 | –
12 | CC(C)[C@@H]1COc2cc(OCCOCC(F)(F)F)c(Cl)cc2-c2cc(=O)c(C(=O)O)cn21 [Embodiment 13] | 43.9 | 24.1 | –
13 | COc1cc2c(cc1Cl)-c1cc(=O)c(C(=O)O)cn1[C@H](C(C)C)CO2 [Embodiment 14] | 22.8 | 23.4 | –
14 | CC(C)[C@@H]1COc2cc(OCC3CC3)c(Cl)cc2-c2cc(=O)c(C(=O)O)cn21 [Embodiment 15] | 10.4 | 8.66 | –
15 | CC(C)COc1cc2c(cc1Cl)-c1cc(=O)c(C(=O)O)cn1[C@H](C(C)C)CO2 [Embodiment 16] | 9.73 | 11.4 | –
16 | CC(C)[C@@H]1COc2cc(OCC3CCOCC3)c(Cl)cc2-c2cc(=O)c(C(=O)O)cn21 [Embodiment 17] | 5.05 | 4.77 | –
17 | COCCOc1cc2c(cc1Cl)-c1cc(=O)c(C(=O)O)cn1[C@H](C(C)C)CO2 [Embodiment 18] | 34.8 | 34.7 | –
18 | COCCCCOc1cc2c(cc1Cl)-c1cc(=O)c(C(=O)O)cn1[C@H](C(C)C)CO2 [Embodiment 19] | 8.15 | 11.7 | –
19 | CC(C)[C@@H]1COc2cc(OCCCN3CCOC3=O)c(Cl)cc2-c2cc(=O)c(C(=O)O)cn21 [Embodiment 20] | 41.9 | 45 | –
20 | CC(C)[C@@H]1COc2cc(OCCCOC(F)(F)F)c(Cl)cc2-c2cc(=O)c(C(=O)O)cn21 [Embodiment 21] | 25.9 | 23.2 | –
21 | CC(=O)CCCOc1cc2c(cc1Cl)-c1cc(=O)c(C(=O)O)cn1[C@H](C(C)C)CO2 [Embodiment 22] | 11.4 | 11.2 | –
22 | COC(=O)NCCCOc1cc2c(cc1Cl)-c1cc(=O)c(C(=O)O)cn1[C@H](C(C)C)CO2 [Embodiment 23] | 33.6 | 24.1 | –
23 | COCCCOc1cc2c(cc1Cl)-c1cc(=O)c(C(=O)O)cn1[C@H](C(C)(C)C)CO2 [Embodiment 24] | 0.743 | 0.457 | –
24 | COCCCOc1cc2c(cc1Br)-c1cc(=O)c(C(=O)O)cn1[C@H](C(C)(C)C)CO2 [Embodiment 25] | 0.769 | < 0.457 | –
25 | COCCCOc1cc2c(cc1C#N)-c1cc(=O)c(C(=O)O)cn1[C@H](C(C)C)CO2 [Embodiment 26] | 3.33 | 2.19 | –
26 | COCCCOc1cc2c(cc1C)-c1cc(=O)c(C(=O)O)cn1[C@H](C(C)(C)C)CO2 [Embodiment 27] | 2.51 | 1.1 | –
27 | COCCCOc1cc2c(cc1C1CC1)-c1cc(=O)c(C(=O)O)cn1[C@H](C(C)(C)C)CO2 [Embodiment 28] | 0.718 | 0.508 | –
28 | COCCCOc1cc2c(cc1C(C)=O)-c1cc(=O)c(C(=O)O)cn1[C@H](C(C)C)CO2 [Embodiment 29] | 1.34 | 0.507 | –
29 | C=C1[C@H](CO)[C@@H](O)C[C@@H]1n1cnc2c(=O)[nH]c(N)nc21 [Entecavir] | – | – | Log HBsAg (IU/mL) (Ave. value) ([3]; dosing time day 1, 0.1 mg/kg QD gavage): 3.66 IU/mL; Log HBsAg (IU/mL) (Ave. value) ([3]; dosing time day 3, 0.1 mg/kg QD gavage): 4.32 IU/mL; Log HBsAg (IU/mL) (Ave. value) ([3]; dosing time day 5, 0.1 mg/kg QD gavage): 4.01 IU/mL; Log HBsAg (IU/mL) (Ave. value) ([3]; dosing time day 7, 0.1 mg/kg QD gavage): 2.46 IU/mL
30 | CC(C)OC(=O)OCOP(=O)(CO[C@H](C)Cn1cnc2c(N)ncnc21)OCOC(=O)OC(C)C.O=C(O)/C=C/C(=O)O [TDF, reference compound] | – | – | HBsAg content in the plasma of the mice ([4]; day 4): 4.56 IU/mL; HBsAg content in the plasma of the mice ([4]; day 7): 4.59 IU/mL; HBsAg content in the plasma of the mice ([4]; day 11): 4.66 IU/mL; HBsAg content in the plasma of the mice ([4]; day 14): 4.50 IU/mL; HBsAg content in the plasma of the mice ([4]; day 18): 4.61 IU/mL; HBsAg content in the plasma of the mice ([4]; day 21): 4.52 IU/mL; HBsAg content in the plasma of the mice ([4]; day 25): 4.33 IU/mL; HBsAg content in the plasma of the mice ([4]; day 28): 4.34 IU/mL; HBsAg content in the plasma of the mice ([4]; day −1): 4.59 IU/mL
